For assay [1], the system named is total β-catenin in SW480 colorectal cells. The assay is described as follows: Total β-catenin MSD 96-well plate assay for SW480 cells. The following applies: Homo sapiens, SW480, read-out: SW480-Total beta-catenin (TBC) IC50 IP.
Assay [2] concerns Axin2 accumulation in SW480 cells. The assay is described as follows: Axin2 384 immunofluorescence assay. The following applies: Homo sapiens, read-out: Axin2 384 IF EC50. Format: cell-based.
For the next assay, the target named is PARP1 (Homo sapiens (Human), UniProt P09874). The assay is described as follows: PARP1 biochemical assay (Trevigen kit). From the text:
PARP1 biochemical assay was purchased as a kit from Trevigen (cat.#4676-096-K) and used per manufacturers recommendations.

Assay [3] relates to 8×TCF promoter-driven Firefly luciferase (Wnt reporter) in DLD-1 colorectal cells. Put plainly: DLD-1-STF assay, constitutively activated Wnt pathway reporter. Format: cell-based. Particulars: Homo sapiens. As for the experimental part: DLD-1 colorectal cells engineered with an 8×TCF promoter-driven Firefly (FF) luciferase gene (Wnt reporter) along with an EF1a promoter-driven Renilla (RN) luciferase gene (control reporter) were used to measure the potency of tankyrase compounds in the context of the constitutively activated Wnt pathway due to mutated APC in colorectal cancer cells. The engineered DLD-1 cells were plated (45 μL) at a density of 10,000 cells/well in black, clear-bottom, 96-well View plates (PerkinElmer) in normal growth medium (RPMI with 10% FBS with no antibiotics). Tankyrase inhibitors (5 μL) were transferred to cells from a three-fold serially diluted compound plate. A 10-point dilution series was tested starting at a concentration (10 μM final concentration in assay). Column 6 contained only DMSO and served as the “HI” control. A potent Tankyrase inhibitor was used at a final concentration of 10 uM in column 12 which served as the “LO” control. […] The Dual-Glo Reagents (Promega) were added as directed by manufacturer to assay the FF and RN luciferase activity. Luciferase activity was measures using the EnVision multilabel plate reader (PerkinElmer).

Another assay concerns the target PARP2 (Homo sapiens (Human), UniProt Q9UGN5). Put plainly: PARP2 biochemical assay (BPS kit).
The target in assay [4] is 6×HIS-tankyrase1 (1091-1325) (Homo sapiens (Human), UniProt O95271). Put plainly: Tankyrase 1 biochemical assay (AlphaLisa, PARsylation). Particulars: 400 nM NAD, 60 minutes at RT; read-out: TNKS1 IC50.
6×HIS-tankyrase1 (1091-1325), sequence (O95271 1091-1325): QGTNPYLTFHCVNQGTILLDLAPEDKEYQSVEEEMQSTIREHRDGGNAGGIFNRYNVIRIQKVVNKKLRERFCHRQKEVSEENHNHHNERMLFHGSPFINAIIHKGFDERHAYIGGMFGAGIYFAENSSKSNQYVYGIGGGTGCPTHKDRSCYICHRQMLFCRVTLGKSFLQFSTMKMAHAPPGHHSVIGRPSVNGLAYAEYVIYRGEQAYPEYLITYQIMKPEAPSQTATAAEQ
Assay [5] has as its target 6×HIS-tankyrase 2 (946-1162) (Homo sapiens (Human), UniProt Q9H2K2). Put plainly: Tankyrase 2 biochemical assay (AlphaLisa, PARsylation). The following applies: 250 nM NAD; read-out: TNKS2 IC50.
Setting [6] is: DLD-1, read-out: DLD1-STF-FF/RL*100 IC50.

15 compounds from patent US9505749B2, “Quinazolinone compounds and derivatives thereof” (AMGEN INC., priority 2012, dated 2016) can be followed below.

Molecules are shown by their SMILES. Like-named read-outs stand apart in the source and are kept apart here.

As a reminder, the EC50 is the concentration needed to bring the measured effect to its halfway point.

6×HIS-tankyrase 2 (946-1162), sequence (Q9H2K2 946-1162): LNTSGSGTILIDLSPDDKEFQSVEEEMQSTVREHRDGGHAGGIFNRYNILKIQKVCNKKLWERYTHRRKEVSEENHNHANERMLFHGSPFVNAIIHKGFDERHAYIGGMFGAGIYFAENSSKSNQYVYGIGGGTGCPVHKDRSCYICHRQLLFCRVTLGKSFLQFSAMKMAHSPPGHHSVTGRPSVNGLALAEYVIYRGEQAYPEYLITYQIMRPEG
PARP2, sequence (Q9UGN5 whole entry): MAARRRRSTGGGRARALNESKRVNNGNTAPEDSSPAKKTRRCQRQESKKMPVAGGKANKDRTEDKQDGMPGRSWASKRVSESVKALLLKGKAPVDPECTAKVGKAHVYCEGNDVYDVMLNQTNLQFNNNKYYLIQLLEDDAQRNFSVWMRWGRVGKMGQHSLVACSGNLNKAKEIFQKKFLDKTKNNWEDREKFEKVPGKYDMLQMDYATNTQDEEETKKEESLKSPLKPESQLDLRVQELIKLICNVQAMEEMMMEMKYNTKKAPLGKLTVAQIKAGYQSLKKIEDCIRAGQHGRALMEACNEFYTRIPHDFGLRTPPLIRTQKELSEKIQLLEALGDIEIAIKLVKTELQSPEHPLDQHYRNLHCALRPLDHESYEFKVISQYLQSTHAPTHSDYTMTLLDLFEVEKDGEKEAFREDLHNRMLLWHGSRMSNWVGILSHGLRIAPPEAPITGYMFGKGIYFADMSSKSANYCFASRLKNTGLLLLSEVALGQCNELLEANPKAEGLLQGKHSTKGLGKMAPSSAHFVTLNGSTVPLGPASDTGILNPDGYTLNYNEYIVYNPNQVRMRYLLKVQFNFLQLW
PARP1, sequence (P09874 whole entry): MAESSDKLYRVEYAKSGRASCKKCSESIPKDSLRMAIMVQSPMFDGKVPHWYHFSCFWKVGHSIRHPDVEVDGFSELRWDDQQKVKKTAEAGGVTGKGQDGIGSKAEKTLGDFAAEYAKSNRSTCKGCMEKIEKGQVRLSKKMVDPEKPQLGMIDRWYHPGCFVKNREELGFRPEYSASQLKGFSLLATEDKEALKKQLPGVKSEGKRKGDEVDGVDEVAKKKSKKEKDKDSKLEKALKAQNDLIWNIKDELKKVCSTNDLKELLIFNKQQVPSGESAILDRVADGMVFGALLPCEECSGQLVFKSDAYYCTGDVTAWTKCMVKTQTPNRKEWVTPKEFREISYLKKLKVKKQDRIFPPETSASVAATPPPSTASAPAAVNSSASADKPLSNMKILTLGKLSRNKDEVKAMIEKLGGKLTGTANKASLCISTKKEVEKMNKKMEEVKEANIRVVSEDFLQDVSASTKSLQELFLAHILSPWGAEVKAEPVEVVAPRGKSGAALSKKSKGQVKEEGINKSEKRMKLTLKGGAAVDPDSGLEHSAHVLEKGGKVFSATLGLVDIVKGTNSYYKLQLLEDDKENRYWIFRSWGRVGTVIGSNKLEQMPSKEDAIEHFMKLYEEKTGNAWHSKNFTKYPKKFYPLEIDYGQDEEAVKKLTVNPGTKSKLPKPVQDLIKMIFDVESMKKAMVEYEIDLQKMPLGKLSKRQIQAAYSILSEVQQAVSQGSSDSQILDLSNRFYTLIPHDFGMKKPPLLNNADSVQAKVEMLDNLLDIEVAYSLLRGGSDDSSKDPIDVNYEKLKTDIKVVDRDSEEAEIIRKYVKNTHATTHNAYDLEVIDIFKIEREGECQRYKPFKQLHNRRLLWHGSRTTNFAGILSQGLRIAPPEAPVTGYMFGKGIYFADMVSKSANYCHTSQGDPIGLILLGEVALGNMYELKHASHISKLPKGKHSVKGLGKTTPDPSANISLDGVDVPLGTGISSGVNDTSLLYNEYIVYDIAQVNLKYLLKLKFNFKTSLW

For `O=C(CCSc1nc2ccccc2c(=O)[nH]1)N[C@H]1CC[C@H](Oc2cccc(Cl)c2)CC1` [Example 112, N-((1r,4r)-4-(3-chlorophenoxy)cyclohexyl)-3-((4-oxo-3,4-dihydroquinazolin-2-yl)thio) propanamide], the figures for the IC50 (in assay [1]; at PARP1; in assay [3] (setting [6])) were 120 nM, more than 85000 nM and more than 50 nM, respectively. In assay [2] (SW480 cells, 24 hours), the EC50 was 105 nM.
With `O=C(CCSc1nc2ccccc2c(=O)[nH]1)N[C@H]1CC[C@H](Oc2ccccn2)CC1` [Example 107, 3-((4-oxo-3,4-dihydroquinazolin-2-yl)thio)-N-((1 r,4r)-4-(pyridin-2-yloxy)cyclohexyl) propanamide], the IC50 was 15.4 nM in assay [1], 3350 nM at PARP2, more than 85000 nM on PARP1 and 1.33 nM in assay [3] (setting [6]). In addition, the EC50 in assay [2] (SW480 cells, 24 hours) is 16.6 nM.
In the case of `O=C(CCCSc1nc2ccccc2c(=O)[nH]1)N[C@H]1CC[C@H](c2nnc(-c3ccccc3)o2)CC1` [Example 110, 4-((4-oxo-3,4-dihydroquinazolin-2-yl)thio)-N-((1r,4r)-4-(5-phenyl-1,3,4-oxadiazol-2-yl)cyclohexyl)butanamide], the IC50 amounted to 104 nM in assay [1], 1440 nM against PARP2, 376 nM on PARP1 and 1.78 nM in assay [3] (setting [6]). In assay [2] (SW480 cells, 24 hours), the EC50 was found to be 132 nM.
In the case of `O=C(CCSc1nc2ccccc2c(=O)[nH]1)N[C@H]1CC[C@H](Oc2ccncc2)CC1` [Example 108, 3-((4-oxo-3,4-dihydroquinazolin-2-yl)thio)-N-((1 r,4r)-4-(pyridin-4-yloxy)cyclohexyl) propanamide], the IC50 in assay [1] is 6.9 nM; at PARP2, 3220 nM; at PARP1, 2760 nM; in assay [3] (setting [6]) it was 0.682 nM. The EC50 in assay [2] (SW480 cells, 24 hours) was 6.79 nM.
For the compound `N#Cc1ccc(O[C@H]2CC[C@H](NC(=O)CCSc3nc4ccccc4c(=O)[nH]3)CC2)cc1Cl` [Example 114, N-((1r,4r)-4-(3-chloro-4-cyanophenoxy)cyclohexyl)-3-((4-oxo-3,4-dihydroquinazolin-2-yl)thio)propanamide], the values for the IC50 (in assay [1]; on PARP1; in assay [3] (setting [6])) were 8.08 nM, more than 85000 nM and 1.08 nM, respectively. In assay [2] (SW480 cells, 24 hours), the EC50 stood at 8.42 nM.
Turning to `N#Cc1cc(O[C@H]2CC[C@H](NC(=O)CCSc3nc4ccccc4c(=O)[nH]3)CC2)ccc1Cl` [Example 113, N-((1r,4r)-4-(4-chloro-3-cyanophenoxy)cyclohexyl)-3-((4-oxo-3,4-dihydroquinazolin-2-yl)thio)propanamide], the figures for the IC50 (in assay [1]; against PARP1; in assay [3] (setting [6])) were 24.2 nM, more than 85000 nM and more than 50 nM, respectively. For the same compound, the EC50 in assay [2] (SW480 cells, 24 hours) was found to be 56 nM.
For the compound `O=C(CCCc1nc2ccccc2c(=O)[nH]1)N[C@H]1CC[C@H](n2c(=O)[nH]c3cc(Cl)ccc32)CC1` [Example 74, N-((1r,4r)-4-(5-chloro-2-oxo-2,3-dihydro-1H-benzo[d]imidazol-1-yl)cyclohexyl)-4-(4-oxo-3,4-dihydroquinazolin-2-yl)butanamide trifluoroacetic acid], the IC50 in assay [1] is 6.62 nM; in assay [3] (DLD-1 cells, 40 to 48 hours, read-out: DLD1-STF-FF/RL*100 IC50), 1.59 nM. Moreover, the EC50 in assay [2] (SW480, 24 h) is 5.34 nM.
With `N#Cc1ccc(O[C@H]2CC[C@H](NC(=O)CCSc3nc4ccccc4c(=O)[nH]3)CC2)cc1` [Example 106, N-(trans-4-(4-cyanophenoxy)cyclohexyl)-3-((4-oxo-3,4-dihydroquinazolin-2-yl)thio) propanamide], the IC50 came out at 1.9 nM in assay [1], 1760 nM against PARP2 and 0.275 nM in assay [3] (setting [6]). For the same compound, the EC50 in assay [2] (SW480 cells, 24 hours) was found to be 4.01 nM.
With `O=C(CCSc1nc2ccccc2c(=O)[nH]1)N[C@H]1CC[C@H](c2nnc(-c3ccccc3)o2)CC1` [Example 97, 3-((4-oxo-3,4-dihydroquinazolin-2-yl)thio)-N-(trans-4-(5-phenyl-1,3,4-oxadiazol-2-yl)cyclohexyl)propanamide], the IC50 in assay [1] is 3.69 nM; on PARP2 it was 2450 nM; in assay [3] (setting [6]) it was 0.608 nM. Also, in assay [2] (SW480 cells, 24 hours), the EC50 worked out at 3.88 nM.
In the case of `O=C(CCc1nc2ccccc2c(=O)[nH]1)N1CCC(c2nnc(-c3ccccc3)o2)CC1` [Example 98, 2-(3-oxo-3-(4-(5-phenyl-1,3,4-oxadiazol-2-yl)piperidin-1-yl)propyl)quinazolin-4(3H)-one], the IC50 stood at 2730 nM in assay [1]; 806 nM against PARP2; 161 nM in assay [4]; 199 nM in assay [5]; 3460 nM at PARP1. In assay [2] (SW480 cells, 24 hours), the EC50 was 3990 nM.
As for `COc1cccc(-c2nnc(C3CCN(C(=O)CCCc4nc5ccccc5c(=O)[nH]4)CC3)o2)c1` [Example 24, 2-(4-(4-(5-(3-methoxyphenyl)-1,3,4-oxadiazol-2-yl)piperidin-1-yl)-4-oxobutyl)quinazolin-4(3H)-one], the IC50 in assay [1] was 226 nM; on PARP2, 1110 nM; in assay [4], 18.8 nM; in assay [5] it was 4.95 nM; at PARP1, 1690 nM. Further, in assay [2] (SW480 cells, 24 hours), the EC50 is 257 nM.
Turning to `O=C(CCCc1nc2ccccc2c(=O)[nH]1)N[C@H]1CC[C@H](c2nnc(-c3cccc(Cl)c3)o2)CC1` [Example 36, N-(trans-4-(5-(3-chlorophenyl)-1,3,4-oxadiazol-2-yl)cyclohexyl)-4-(4-oxo-3,4-dihydro-2-quinazolinyl)butanamide 2,2,2-trifluoroacetate], the IC50 came out at 29.9 nM in assay [1]; 701 nM on PARP2; 0.367 nM in assay [4]; 0.27 nM in assay [5]; 1140 nM against PARP1. Also, the EC50 in assay [2] (SW480 cells, 24 hours) is 22 nM.
Take `Nc1cc(=O)[nH]c(SCCC(=O)N[C@H]2CC[C@H](c3nnc(-c4ccccc4)o3)CC2)n1` [Example 91, 3-((4-amino-6-oxo-1,6-dihydro-2-pyrimidinyl)sulfanyl)-N-(trans-4-(5-phenyl-1,3,4-oxadiazol-2-yl)cyclohexyl)propanamide]: the IC50 in assay [1] is 1680 nM; against PARP2, more than 170000 nM; in assay [4], 3.97 nM; in assay [5], 8.78 nM; at PARP1, more than 85000 nM. For the same compound, in assay [2] (SW480 cells, 24 hours), the EC50 came out at 1020 nM.
In the case of `O=C(CCSCc1nc2ccccc2c(=O)[nH]1)N[C@H]1CC[C@H](c2nnc(-c3ccccc3)o2)CC1` [Example 92, 3-(((4-oxo-3,4-dihydro-2-quinazolinyl)methyl)sulfanyl)-N-(trans-4-(5-phenyl-1,3,4-oxadiazol-2-yl)cyclohexyl)propanamide], the IC50 is 145 nM in assay [1]; 2420 nM on PARP2; 15.8 nM in assay [4]; 4.44 nM in assay [5]; 2270 nM against PARP1. In assay [2] (SW480 cells, 24 hours), the EC50 came out at 287 nM.
With `O=C(CCCc1nc2ccccc2c(=O)[nH]1)N1CCC(c2nnc(-c3ccc(F)cc3)o2)CC1` [Example 6, 2-(4-(4-(5-(4-fluorophenyl)-1,3,4-oxadiazol-2-yl)piperidin-1-yl)-4-oxobutyl)quinazolin-4(3H)-one], the IC50 in assay [1] came out at 63.9 nM; on PARP2, 783 nM; in assay [4] it was 18.8 nM; in assay [5], 2.59 nM; at PARP1, 5410 nM. Also, in assay [2] (SW480 cells, 24 hours), the EC50 amounted to 247 nM.
